From patent US20110022129A1, “NANOPARTICLES FOR PHOTODYNAMIC THERAPY” (priority 2007, published 2011)
≈ marks a conversion by molar mass, not a printed value.

Legend:
physchem = settings: aqueous with cosolvent or surfactant or cyclodextrin, kinetic from dmso stock
Description: Nanoparticles were isolated as previously described, and the concentration of free β-carotene in the filtrate measured.

[1] = system: AB12, murine malignant pleural mesothelioma (MPM); assay: External-beam (980 nm infrared) nanophosphor-mediated photodynamic therapy of AB12 flank tumors in mice; assay type: in vivo, mouse (BALB/cJ); settings: for total number of surviving animals: sixty day observation, survivors/group size
Procedure: Six to twelve week old, female BALB/cJ (AB12 tumor host) mice, obtained pathogen-free from Taconic Farms, were used for all of the experiments. Animals were kept in conventional conditions in micro-isolator cages in a laminar flow unit under ambient light with full access to food and water during experiments.
AB12, murine malignant pleural mesothelioma (MPM) was utilized for tumor inoculation. Cells were maintained in complete DMEM/F12 culture media in a 37° C. humidified 5% CO2 incubator.
Seventy balb/C mice were inoculated with 5×10^5 AB12, malignant mesothelioma cells via subcutaneous flank injection. The subsequent tumors were measured using digital calipers three times per week until the tumors reached ˜200-300 mm^3 at which time the mice were given their first treatment. Mice were divided into […]. The groups were as follows: i. Control, ii. Infrared light-Nanophosphor-Photosensitizer (IR-NP-PS), iii. IR-NP, iv. IR-PS, v. IR alone, vi. NP alone, and vii. PS alone. Groups ii, iii, and vi were administered intra-tumoral injections with 100 μl of 25 mg/ml nanophosphor suspension in saline at 72 and 48 h prior to only the first treatment. Groups ii, iv, and vii were administered weekly intra-peritoneal (i.p.) injections of 10 mg/kg Photofrin™, twenty-four hours before first treatment of each week.
For this procedure mice were anesthetized with i.p. ketamine and xylazine, 80 mg/kg and 12 mg/kg, respectively. A maximum dose of 1.0 W of 980 nm light (BW Tek) at the treatment surface was measured using an IR thermopile detector (Coherent, Inc) for a total dose of 28.3 J/cm^2. Pulsed light delivery method of 1 second ON, 2 seconds OFF for 1.5 hours was utilized to minimize damage of healthy tissue due to heat from the infrared light by allowing the tissue to dissipate the heat between delivery cycles. […] Over the course of the entire treatment program tumors were measured three times weekly and mice were monitored for signs of morbidity for 60 days or until tumors reached endpoint of 500 mm^3.

Row | solubility (physchem) [µg/mL] | Compound | tumor regression ([1]; over treatment program, in words) | total number of surviving animals [1]
1 | ~50 (≈ 93.1 µM) | CC1=C(/C=C/C(C)=C/C=C/C(C)=C/C=C/C=C(C)/C=C/C=C(C)/C=C/C2=C(C)CCCC2(C)C)C(C)(C)CCC1 [β-carotene] | – | –
2 | – | Photofrin [IR-PS] | No animals | 0/10
3 | – | Photofrin [PS alone] | – | 0/9
